{"source": "patent US9095535B2", "about": "“GABA release-regulating agent in cerebellum” (KOREA INSTITUTE OF SCIENCE AND TECHNOLOGY, priority 2009, dated 2015)", "key": {"Best1 channel": {"molecular_target": "T1, Best1 channel (Mus musculus, UniProt O88870)", "T1 construct": "mBest1 full-length fragment from pGEM-T easy plasmid (6.65 kb, Promega) was subcloned into pcDNA 3.1; expressed in transfected cells; host or cells: HEK293T (ATCC)", "T1 sequence (O88870 1-551 R255K)": "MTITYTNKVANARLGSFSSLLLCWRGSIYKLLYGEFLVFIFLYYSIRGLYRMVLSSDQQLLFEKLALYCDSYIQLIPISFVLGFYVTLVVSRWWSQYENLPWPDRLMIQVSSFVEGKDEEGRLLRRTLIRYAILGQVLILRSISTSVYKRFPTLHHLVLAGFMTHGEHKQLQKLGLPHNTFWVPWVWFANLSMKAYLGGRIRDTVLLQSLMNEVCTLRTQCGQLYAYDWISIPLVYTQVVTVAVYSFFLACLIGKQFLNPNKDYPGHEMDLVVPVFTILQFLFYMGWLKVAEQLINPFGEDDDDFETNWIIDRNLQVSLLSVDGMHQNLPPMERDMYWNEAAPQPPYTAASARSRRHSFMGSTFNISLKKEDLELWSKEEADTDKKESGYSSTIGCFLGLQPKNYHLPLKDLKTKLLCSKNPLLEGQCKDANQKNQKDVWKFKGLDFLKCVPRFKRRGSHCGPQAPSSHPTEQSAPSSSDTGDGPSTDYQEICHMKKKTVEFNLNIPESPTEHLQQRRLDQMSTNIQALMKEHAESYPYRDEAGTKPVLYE", "assay_type": "cell-based", "settings": "NPPB and NFA at 100 μM; inward current in GABAc sensor cell", "text": "For Best1 channel to mediate release of GABA, it has to permeate GABA upon channel opening. To test for GABA permeability of Best1 channel, a two-cell sniffer patch technique was developed to directly measure GABA release via Best1 channel in sensor HEK293T cells that express GABAc, and via other channels that are expressed in source HEK293T cells (FIG. 1b).\npIRES-Best1-dsRED plasmid (obtained by cloning Best1 using pIRES-dsRED (Invitrogen)) and GABAc with GFP (obtained by cloning GABAc using pcDNA3.1 (Invitrogen)) were transfected into HEK 293T cells (ATCC) using Effectene transfection reagent (Qiagen). […]\nGABA release was induced by a break-though of membrane patch that goes into a whole-cell configuration in the source cell and such the released GABA was monitored and detected by a neighboring sensor cell. Full activation of GABA current was obtained by bath application of 100 μM GABA and the percentage of full activation was calculated (FIGS. 1c and 1d).\nPermeated GABA is detected in sensor as an inward current (bottom traces). […] The GABA permeability of said mutant was determined by using cells obtained by transfecting said mutant into HEK293t cell (ATCC). […] The GABA permeability of said AN01 was determined by using cells obtained by transfecting said mutant into HEK293t cell (ACTT)."}, "cerebellar granule cells": {"tested_on": "cerebellar granule cells", "experiment": "Whole-cell patch clamp of tonic GABA current in cerebellar granule cells", "assay_type": "cell-based, mouse", "method": "Brain slices were prepared as described in Rossi et al., 2003. For slice recording, either approximately P28 days old or more than 8 weeks old mice were used. Animals were deeply anesthetized with halothane. After decapitation, the brain was quickly excised from the skull and submerged in ice-cold cutting solution (in mM): 250 Sucrose, 26 NaHCO3, 10 D(+)-Glucose, 4 MgCl2, 3 myo-inositol, 2.5 KCl, 2 Sodium pyruvate, 1.25 NaH2PO4, 0.5 Ascorbic acid 0.1 CaCl2, 1 Kynurenic acid, pH 7.4. All solutions were gas-treated with 95% O2-5% CO2. After trimming both sides of vermis, several parasagittal slices with […] thicknesses containing cerebellar lobes were cut using a microtome (Leica VT 1000) and transferred to extracellular ACSF solution (in mM); 126 NaCl, 24 NaHCO3, 1 NaH2PO4, 2.5 KCl, 2.5 CaCl2, 2 MgCl2, 10 D(+)-Glucose, pH 7.4. Slices were incubated for one hour at least at room temperature.\nFor recording, slices were transferred to an electrophysiological recording chamber (RC-26G, Warner Instruments) which is continuously superfused with ASCF (artificial cerebrospinal fluid, sigma) solution (flow rate; 2 ml/min) and controlled by flower controller (Synaptosoft) and a vacuum pump (Charles Austen, model Capex 8C). Slice chamber was mounted on the stage of an upright microscope (Olympus, Japan) and viewed with an ×60 water immersion objective with differential interference contrast and infrared optics. Cellular morphologies were visually identified by Imaging Workbench 6.0 (INDEC Systems, Inc), camera controller (Hamamatsu, C4742-95), and light microscope controller (Olympus, TH4-200). Fluorescence images were viewed with mercury lamp (Olympus, U-RFL-T). Whole cell voltage-clamp recording was made from granular cell somata or Bergmann glial cells mostly located in 2-5 cerebellar lobules\nPipette resistance for granule cells was typically 10-12 MΩ and pipette was filled with an internal solution containing (in mM) 135 CsCl, 4 NaCl, 0.5 CaCl2, 10 HEPES, 5 EGTA, 2 Mg-ATP, 0.5 Na2-GTP, 10 QX-314, pH adjusted to 7.2 with CsOH (278-285 mOsmol) was used (Rossi, et al., 2003).\nB6 wildtype, GFAP-GFP and hGFAP-CreERT2 trangenic mice (SPF room, Center for Neural Science, KIST, Seoul, Korea) were anaesthetized by intraperitoneal injection of 2% avertin (20 μl/g, sigma) and placed in a stereotaxic frame (David Kopf instrument). pSicoR-b1shRNA-mCherry or scrambled virus (Macrogen) was stereo-injected into cerebellar cortex at a rate of 0.2 μl/min (total 2 μl) using syringe pump (Harvard apparatus) and 25 μl syringe (Hamilton company). The coordination of injection site was 1.7 mm from the lambda and the depth was 1.5-1.7 mm from the skull.\nThe glia-specific CreERT activation was initiated by intraperitoneal injection of tamoxifen for 5 days prior to lentivirus injection (FIG. 4a,b). […] Tamoxifen or sunflower oil were injected intraperitoncally once a day for 5 days before lentivirus injection."}, "GABAA receptor": {"tested_on": "GABAA receptor", "experiment": "GABA-induced whole cell current in cerebellar granule cells", "assay_type": "cell-based", "settings": "NPPB application 2 and 5 min; wild B6 mouse granule cells", "method": "For puffing experiment, glass electrode (5-6 MΩ) filled with […] was positioned near to the patched granular cell and puffed briefly for 500 ms by Picospritzer III (Parker instrumentation) connected with MiniDigi (Molecular Device).\nThe magnitudes of GABA induced current with the NPPB application (2 and 5 min) are also shown."}, "hBest1": {"molecular_target": "T2, hBest1 (Homo sapiens, UniProt O76090)", "T2 sequence (O76090 1-585)": "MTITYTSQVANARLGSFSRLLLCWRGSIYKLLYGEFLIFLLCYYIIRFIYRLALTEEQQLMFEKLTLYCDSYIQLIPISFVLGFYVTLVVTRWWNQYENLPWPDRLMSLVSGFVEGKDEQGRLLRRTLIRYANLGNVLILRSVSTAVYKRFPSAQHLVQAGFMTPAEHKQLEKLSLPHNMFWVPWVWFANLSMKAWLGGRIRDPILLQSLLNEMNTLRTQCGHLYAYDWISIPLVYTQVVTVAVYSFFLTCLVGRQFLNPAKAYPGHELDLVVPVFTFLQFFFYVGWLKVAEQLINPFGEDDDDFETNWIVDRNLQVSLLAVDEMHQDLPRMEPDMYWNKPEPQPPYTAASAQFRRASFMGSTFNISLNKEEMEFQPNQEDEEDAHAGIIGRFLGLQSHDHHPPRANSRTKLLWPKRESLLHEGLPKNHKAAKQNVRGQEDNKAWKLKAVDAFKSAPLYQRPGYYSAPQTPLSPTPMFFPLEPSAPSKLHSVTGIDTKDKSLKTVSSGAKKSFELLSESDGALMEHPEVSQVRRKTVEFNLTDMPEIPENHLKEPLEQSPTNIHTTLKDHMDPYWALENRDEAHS", "settings": "cited from earlier work"}}}
{"smiles": "O=C(O)c1cc([N+](=O)[O-])ccc1NCCCc1ccccc1", "note": "[NPPB, 5-nitro-2(3-phenylpropylamino)-benzoic acid]", "values": [{"measurement": "GABA release via Best1", "setting": "Best1 channel", "result": "completely abolished"}, {"measurement": "NPPB sensitive and Best1-mediated tonic GABA release as share of total GABAzine-sensitive current", "setting": "cerebellar granule cells", "result": "about 70%"}, {"measurement": "Tonic GABA current", "setting": "cerebellar granule cells; bath application of 50 μM NPPB, 8 wks B6 mice", "result": "reduced"}, {"measurement": "NPPB-sensitive component of tonic GABA current", "setting": "cerebellar granule cells; naive mice, 50 μM NPPB", "result": "18.95±2.47", "unit": "pA"}, {"measurement": "GABA-induced whole cell current", "setting": "GABAA receptor", "result": "did not have any effect"}, {"measurement": "block of hBest1 Cl− channel", "setting": "hBest1", "result": "readily blocked"}]}
